Measurements from patent US12568967B2, “Compositions comprising pyridine carboxylate herbicides with synthetic auxin herbicides or auxin transport inhibitors” (priority 2018, dated 2026).
Read-outs that look alike come from different tables or passages of the source.

Experiments:
[1] = tested on: Cirsium arvense (Canadian thistle, CIRAR); assay: Greenhouse postemergence trial CIRAR; format: in vivo
Description: (§1) Seeds of the desired test plant species were planted in a 90:10% v/v (volume/volume) mixture of PRO-MIX® BX (Premier Tech Horticulture, Quakertown, PA, USA) and PROFILE® GREENS GRADE™ (Profile Products LLC, Buffalo Grove, IL, USA) planting mixture, which typically has a pH of 5.2 to 6.2 and an organic matter content of at least 50 percent, in plastic pots with a surface area of 103.2 square centimeters (cm^2). […] The plants were grown for 7-36 days (d) in a greenhouse with an approximate 14-hour (h) photo-period which was maintained at about 23° C. during the day and 22° C. during the night. Nutrients and water were added on a regular basis and supplemental lighting was provided with overhead metal halide 1000-Watt lamps as necessary. The plants were employed for testing when they reached the second or third true leaf stage.
(§2) Emulsifiable concentrates of each of each pyridine carboxylate herbicide (Compound A or Compound B) were prepared at 100 grams acid equivalent per liter (g ae/L). The emulsifiable concentrates also included a safener, cloquintocet-mexyl, at 120 grams active ingredient per liter (g ai/L), unless otherwise noted below. An aliquot of each emulsifiable concentrate was placed in a 25 mL glass vial and diluted with an aqueous mixture of 1.25% (v/v) ACTIROB® B esterified rapeseed oil (Bayer Crop Science, Research Triangle Park, NC, USA) or MSO® Concentrate with LECI-TECH® methylated soybean oil (Loveland Products, Loveland, CO, USA) to obtain concentrated stock solutions at the highest application rate for each herbicide, based upon a 12 milliliter (mL) application volume at a rate of 187 liters per hectare (L/ha). The concentrated stock solutions were further diluted with an aqueous mixture of 1.25% v/v ACTIROB® B or MSO® Concentrate with LECI-TECH® to obtain stock solutions at reduced application rates for each herbicide. Spray solutions of the herbicide combinations (Compound A or Compound B plus synthetic auxin herbicide or auxin transport inhibitor) were prepared by adding weighed amounts or aliquots of the synthetic auxin herbicide or auxin transport inhibitor to the stock solutions of Compound A or Compound B to form 12-mL spray solutions in two-way combinations.
(§3) The spray solutions were applied to the plant material with an overhead Mandel track sprayer equipped with 8002E nozzles calibrated to deliver 187 L/ha over an application area of 0.503 square meters (m^2) at a spray height of 18 inches (43 centimeters (cm)) above the average plant canopy. Control plants were sprayed in the same manner with the solvent blank. All pyridine carboxylate herbicide (component a) application rates are given as “g ae/ha” and all synthetic auxin herbicide or auxin transport inhibitor (component b) application rates are given as “g ai/ha.”
(§4) The treated plants and control plants were placed in a greenhouse as described above and watered by sub-irrigation to prevent wash-off of the test compounds. After 20-22 d, the condition of the test plants as compared with that of the control plants was determined visually and scored on a scale of 0 to 100 percent where 0 corresponds to no injury and 100 corresponds to complete kill.

[2] = tested on: Amaranthus retroflexus (pigweed, AMARE); assay: Greenhouse postemergence trial AMARE; format: in vivo; conditions: chlorflurenol-methyl 140 g/ha;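 also: Greenhouse-grown plants sprayed at second to third true leaf stage, injury rated by eye after 20-22 d versus solvent-blank sprayed controls, 0 = no injury, 100 = complete kill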
Description: (§5) The plants were grown for 7-36 days (d) in a greenhouse with an approximate 14-hour (h) photo-period which was maintained at about 23° C. during the day and 22° C. during the night. Nutrients and water were added on a regular basis and supplemental lighting was provided with overhead metal halide 1000-Watt lamps as necessary. The plants were employed for testing when they reached the second or third true leaf stage.
(§6) The emulsifiable concentrates also included a safener, cloquintocet-mexyl, at 120 grams active ingredient per liter (g ai/L), unless otherwise noted below.
(§7) Control plants were sprayed in the same manner with the solvent blank. All pyridine carboxylate herbicide (component a) application rates are given as “g ae/ha” and all synthetic auxin herbicide or auxin transport inhibitor (component b) application rates are given as “g ai/ha.”
as §4

[3] = tested on: Chenopodium album L. (common lambsquarters, CHEAL); assay: Greenhouse postemergence trial CHEAL; format: in vivo; conditions: chlorflurenol-methyl 140 g/ha;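 also: greenhouse plants sprayed at second to third true leaf stage, injury rated by eye after 20-22 d versus solvent-blank sprayed controls, 0 = no injury, 100 = complete kill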
[4] = tested on: Kochia scoparia (kochia, KCHSC); assay: Greenhouse postemergence trial KCHSC; format: in vivo
[5] = tested on: Hordeum vulgare (spring barley, HORVS); format: in vivo; conditions: for % visual injury (Obs) / % visual injury Obs: HORVS
[6] = tested on: Salsola kali (Russian thistle, SASKR); assay: Greenhouse postemergence trial SASKR; format: in vivo;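 also: greenhouse plants sprayed at second or third true leaf stage, injury rated by eye after 20-22 d against solvent-blank controls, 0 meaning no injury, 100 complete kill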
Description: as §5, §6, §7, §4

[7] = tested on: Triticum aestivum (spring wheat, TRZAS); format: in vivo; conditions: for % visual injury (Obs) / % visual injury Obs: TRZAS
Description: as §1, §2, §3, §4

[8] = tested on: Sinapis arvensis (wild mustard, SINAR); assay: Greenhouse postemergence trial SINAR; format: in vivo
[9] = tested on: Matricaria chamomilla (wild chamomile, MATCH); assay: Greenhouse postemergence trial MATCH; format: in vivo;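 also: greenhouse plants sprayed at second to third true leaf stage, injury rated by eye 20-22 d later versus solvent-blank controls on 0–100 scale, 0 no injury, 100 complete kill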
[10] = tested on: Brassica napus (spring rape, BRSNN); assay: Greenhouse postemergence trial BRSNN; format: in vivo; conditions: for % visual injury (Obs): BRSNN
[11] = tested on: Papaver rhoeas (corn poppy), herbicide-resistant (PAPRH-R); assay: Greenhouse postemergence trial PAPRH-R; format: in vivo; conditions: PAPRH-R
[12] = tested on: Matricaria inodora (false chamomile, MATIN); assay: Greenhouse postemergence trial MATIN; format: in vivo; conditions: MATIN
Description: as §1, §2, §3, §4

[13] = tested on: Polygonum convolvulus (wild buckwheat, POLCO); assay: Greenhouse postemergence trial POLCO; format: in vivo; conditions: POLCO
Description: as §1, §2, §3, §4

[14] = tested on: Veronica persica (bird's-eye speedwell, VERPE); assay: Greenhouse postemergence trial VERPE; format: in vivo; conditions: VERPE
[15] = tested on: Viola tricolor (wild pansy, VIOTR); assay: Greenhouse postemergence trial VIOTR;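 also: greenhouse plants sprayed at second to third true leaf stage, injury rated visually after 20-22 d against solvent-blank sprayed controls, 0 meaning no injury and 100 complete kill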
[16] = tested on: Capsella bursa-pastoris (shepherd's purse, CAPBP); assay: Greenhouse postemergence trial CAPBP; format: in vivo; conditions: CAPBP
[17] = tested on: Brassica napus (winter rape, BRSNW); assay: Greenhouse postemergence trial BRSNW; format: in vivo; conditions: BRSNW
Description: as §1, §2, §3, §4

[18] = tested on: Papaver rhoeas (corn poppy, PAPRH); assay: Greenhouse postemergence trial PAPRH; format: in vivo; conditions: PAPRH
[19] = tested on: Lamium purpureum (purple deadnettle, LAMPU); assay: Greenhouse postemergence trial LAMPU
[20] = tested on: Veronica hederifolia (ivyleaf speedwell, VERHE); assay: Greenhouse postemergence trial VERHE; format: in vivo; conditions: VERHE
[21] = tested on: Matricaria discoidea (pineapple weed, MATMT); assay: Greenhouse postemergence trial MATMT; format: in vivo; conditions: MATMT
[22] = tested on: Anthemis arvensis (field chamomile, ANTAR); assay: Greenhouse postemergence trial ANTAR; format: in vivo; conditions: ANTAR
[23] = tested on: Triticum aestivum (winter wheat, TRZAW); assay: Greenhouse postemergence crop phytotoxicity TRZAW; format: in vivo; conditions: TRZAW
[24] = tested on: Hordeum vulgare (winter barley, HORVW); assay: Greenhouse postemergence crop phytotoxicity HORVW; format: in vivo; conditions: HORVW
[25] = tested on: Stellaria media (chickweed, STEME); assay: Greenhouse postemergence trial STEME; format: in vivo; conditions: STEME
[26] = tested on: Viola arvensis (field violet, VIOAR); assay: Greenhouse postemergence trial VIOAR; format: in vivo; conditions: VIOAR
[27] = tested on: Cyanus segetum (cornflower, CENCY); assay: Greenhouse postemergence trial CENCY; format: in vivo; conditions: CENCY
Description: as §1, §2, §3, §4

[28] = Papaver rhoeas, post-emergence, Picloram 20 g/ha, read-out: % visual injury Obs

COC(=O)C1(O)c2ccccc2-c2ccc(Cl)cc21 (centres unmarked) [Chlorflurenol-methyl]
CIRAR Obs (% visual injury) ([1]; chlorflurenol-methyl 140 g/ha): 0% | AMARE Obs (% visual injury) [2]: 0% | CHEAL Obs (% visual injury) [3]: 0% | KCHSC Obs (% visual injury) ([4]; chlorflurenol-methyl 140 g/ha): 0% | HORVS Obs (% visual injury) ([5]; chlorflurenol-methyl 140 g/ha): 0% | SASKR Obs (% visual injury) ([6]; chlorflurenol-methyl 140 g/ha): 0% | TRZAS Obs (% visual injury) ([7]; chlorflurenol-methyl 140 g/ha): 0% | SINAR Obs (% visual injury) ([8]; chlorflurenol-methyl 140 g/ha): 18% | MATCH Obs (% visual injury) ([9]; chlorflurenol-methyl 140 g/ha): 0% | BRSNN Obs (% visual injury) ([10]; chlorflurenol-methyl 140 g/ha): 23%

Nc1nc(C2CC2)nc(C(=O)O)c1Cl [Aminocyclopyrachlor]
% visual injury Obs ([11]; alone, 50 g/ha): 60% | % visual injury Obs ([12]; alone, 50 g/ha): 85% | % visual injury Obs ([13]; alone, 50 g/ha): 70% | % visual injury Obs ([14]; alone, 50 g/ha): 65% | % visual injury (Obs) ([15]; VIOTR, alone 25 g/ha): 45% | % visual injury Obs ([15]; VIOTR, alone, 50 g/ha): 30% | % visual injury Obs ([1]; CIRAR, alone, 50 g/ha): 85% | % visual injury Obs ([16]; alone, 50 g/ha): 70% | % visual injury Obs ([17]; alone, 50 g/ha): 50% | % visual injury Obs ([18]; alone, 50 g/ha): 75% | % visual injury Obs ([19]; LAMPU, alone, 50 g/ha): 65% | % visual injury Obs ([20]; alone, 50 g/ha): 60% | % visual injury Obs ([21]; alone, 50 g/ha): 50% | % visual injury (Obs) ([4]; KCHSC, alone 25 g/ha): 78% | % visual injury Obs ([4]; KCHSC, alone, 50 g/ha): 100% | % visual injury Obs ([22]; alone, 50 g/ha): 100% | % visual injury Obs ([23]; alone, 50 g/ha): 0% | % visual injury (Obs) ([5]; alone 25 g/ha): 20% | % visual injury Obs ([5]; alone, 50 g/ha): 0% | % visual injury Obs ([6]; SASKR, alone, 50 g/ha): 75% | % visual injury (Obs) ([7]; alone 25 g/ha): 43% | % visual injury Obs ([7]; alone, 50 g/ha): 0% | % visual injury Obs ([8]; SINAR, alone, 50 g/ha): 50% | % visual injury Obs ([9]; MATCH, alone, 50 g/ha): 60% | % visual injury Obs ([24]; alone, 50 g/ha): 0% | % visual injury Obs ([25]; alone, 50 g/ha): 30% | % visual injury (Obs) ([10]; alone 25 g/ha): 30% | % visual injury Obs ([26]; alone, 50 g/ha): 25% | % visual injury Obs ([27]; alone, 50 g/ha): 100%

Nc1c(Cl)c(Cl)nc(C(=O)O)c1Cl [Picloram]
pest or weed control at 20 g/ha [11, 28]: 30% | % visual injury (Obs) ([12]; alone 10 g/ha): 10% | pest or weed control at 20 g/ha ([12]; Tripleurospermum inodorum, post-emergence, Picloram 20 g/ha, read-out: % visual injury Obs): 30% | pest or weed control at 20 g/ha ([13]; Fallopia convolvulus, post-emergence, Picloram 20 g/ha, read-out: % visual injury Obs): 40% | pest or weed control at 20 g/ha ([14]; Veronica persica, post-emergence, Picloram 20 g/ha, read-out: % visual injury Obs): 10% | % visual injury (Obs) ([15]; VIOTR, alone, 10 g/ha): 10% | pest or weed control at 20 g/ha ([15]; Viola tricolor, post-emergence, read-out: % visual injury Obs): 10% | pest or weed control at 20 g/ha ([1]; Cirsium arvense, post-emergence, CIRAR, Picloram 20 g/ha, read-out: % visual injury Obs): 60% | % visual injury (Obs) ([16]; alone 10 g/ha): 10% | pest or weed control at 20 g/ha ([16]; Capsella bursa-pastoris, post-emergence, Picloram 20 g/ha, read-out: % visual injury Obs): 0% | plant injury at 20 g/ha ([17]; Brassica napus, post-emergence, Picloram 20 g/ha, read-out: % visual injury Obs): 10% | pest or weed control at 20 g/ha [18, 28]: 20% | % visual injury (Obs) ([19]; LAMPU, alone 10 g/ha): 10% | pest or weed control at 20 g/ha ([19]; Lamium purpureum, post-emergence, read-out: % visual injury Obs): 5% | pest or weed control at 20 g/ha ([20]; Veronica hederifolia, post-emergence, Picloram 20 g/ha, read-out: % visual injury Obs): 10% | pest or weed control at 20 g/ha ([21]; Matricaria discoidea, post-emergence, Picloram 20 g/ha, read-out: % visual injury Obs): 10% | pest or weed control at 20 g/ha ([4]; Bassia scoparia, post-emergence, KCHSC, Picloram 20 g/ha, read-out: % visual injury Obs): 10% | % visual injury (Obs) ([4]; KCHSC, alone 10 g/ha): 10% | pest or weed control at 20 g/ha ([22]; Anthemis arvensis, post-emergence, Picloram 20 g/ha, read-out: % visual injury Obs): 30% | % visual injury Obs ([23]; Picloram 20 g/ha): 0% | % visual injury Obs ([5]; Picloram 20 g/ha): 0% | % visual injury (Obs) ([5]; alone 10 g/ha): 0% | pest or weed control at 20 g/ha ([6]; Salsola kali, post-emergence, SASKR, Picloram 20 g/ha, read-out: % visual injury Obs): 30% | % visual injury Obs ([7]; Picloram 20 g/ha): 0% | % visual injury (Obs) ([7]; alone 10 g/ha): 0% | pest or weed control at 20 g/ha ([8]; Mutarda arvensis, post-emergence, SINAR, Picloram 20 g/ha, read-out: % visual injury Obs): 30% | pest or weed control at 20 g/ha ([9]; Matricaria chamomilla, post-emergence, MATCH, Picloram 20 g/ha, read-out: % visual injury Obs): 40% | % visual injury Obs ([24]; Picloram 20 g/ha): 0% | pest or weed control at 20 g/ha ([25]; Stellaria media, post-emergence, Picloram 20 g/ha, read-out: % visual injury Obs): 10% | % visual injury (Obs) ([10]; alone 10 g/ha): 8% | pest or weed control at 20 g/ha ([26]; Viola arvensis, post-emergence, Picloram 20 g/ha, read-out: % visual injury Obs): 10% | pest or weed control at 20 g/ha ([27]; Centaurea cyanus, post-emergence, Picloram 20 g/ha, read-out: % visual injury Obs): 60%
